Results: US8541449B2, “Substituted isoquinolines and isoquinolinones as Rho kinase inhibitors” (Sanofi, priority 2008, dated 2013)

Experiments:
[1] = molecular target: T1, recombinant human PKG1-beta (Homo sapiens, UniProt Q13976); test: Determination of Protein Kinase G inhibition (Caliper peptide phosphorylation assay); format: biochemical; settings: recombinant human PKG1-beta versus ROCK II
T1 construct: Active recombinant human PKG1-beta (full-length, with N-terminal His-tag); His-tag (N); purchased Millipore GmbH, Schwalbach, Germany
T1 sequence (Q13976 1-686 isoform Q13976-2): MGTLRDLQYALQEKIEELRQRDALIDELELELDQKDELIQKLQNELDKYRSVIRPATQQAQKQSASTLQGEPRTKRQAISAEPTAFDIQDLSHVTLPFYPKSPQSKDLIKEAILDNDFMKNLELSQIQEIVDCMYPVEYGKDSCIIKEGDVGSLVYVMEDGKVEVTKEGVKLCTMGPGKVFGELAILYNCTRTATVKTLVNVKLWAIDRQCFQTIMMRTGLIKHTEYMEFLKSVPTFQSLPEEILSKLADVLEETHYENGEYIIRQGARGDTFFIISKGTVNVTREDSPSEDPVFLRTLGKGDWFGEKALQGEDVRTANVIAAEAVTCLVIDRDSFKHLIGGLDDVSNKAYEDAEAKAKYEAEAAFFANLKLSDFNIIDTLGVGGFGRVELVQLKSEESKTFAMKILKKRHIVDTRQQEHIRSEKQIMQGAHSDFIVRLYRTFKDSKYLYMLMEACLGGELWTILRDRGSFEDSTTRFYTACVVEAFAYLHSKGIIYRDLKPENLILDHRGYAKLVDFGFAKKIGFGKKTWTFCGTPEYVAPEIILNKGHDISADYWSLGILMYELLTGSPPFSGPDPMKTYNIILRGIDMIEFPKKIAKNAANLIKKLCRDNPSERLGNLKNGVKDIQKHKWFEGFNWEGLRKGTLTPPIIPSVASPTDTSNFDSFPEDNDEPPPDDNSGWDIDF
How it was run: (§1)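 Full-length His-tagged PKG1-beta (150 ng/ml working) or His-tagged PKA residues 1-351 (30 ng/ml working) was mixed with compound in pH 7.4 Tris/MgCl2/DTT buffer. Fluorescein-peptide substrate and ATP (3 μM and 120 μM working) were then added for 60 min at 32 °C before an EDTA stop. Phosphopeptide was separated electrophoretically on a Caliper instrument to derive IC50.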

[2] = molecular target: T2, human recombinant ROCK II (Homo sapiens, UniProt O75116); test: Determination of Rho kinase inhibition (Caliper peptide phosphorylation assay); format: biochemical; settings: 60 min at 32° C., negative decadal logarithm of the IC50
T2 construct: N-terminal His6-tagged recombinant human ROCK-II residues 11-552; His6 (N); purchased Millipore GmbH, Schwalbach, Germany
T2 sequence (O75116 11-552): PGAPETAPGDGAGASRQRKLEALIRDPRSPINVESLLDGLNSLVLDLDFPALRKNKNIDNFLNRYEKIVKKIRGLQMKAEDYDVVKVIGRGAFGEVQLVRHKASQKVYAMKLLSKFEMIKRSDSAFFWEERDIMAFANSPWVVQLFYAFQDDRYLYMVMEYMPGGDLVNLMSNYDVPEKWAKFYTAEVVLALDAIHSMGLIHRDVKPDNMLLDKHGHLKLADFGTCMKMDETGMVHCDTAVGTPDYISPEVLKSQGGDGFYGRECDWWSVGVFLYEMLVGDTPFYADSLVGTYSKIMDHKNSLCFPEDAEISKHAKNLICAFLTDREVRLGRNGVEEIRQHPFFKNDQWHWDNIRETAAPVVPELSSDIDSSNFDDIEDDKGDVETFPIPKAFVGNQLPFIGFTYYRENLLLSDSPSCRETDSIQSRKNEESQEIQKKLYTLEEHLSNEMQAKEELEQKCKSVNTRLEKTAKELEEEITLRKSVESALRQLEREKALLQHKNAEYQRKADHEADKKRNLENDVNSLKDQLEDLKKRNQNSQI
How it was run: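 His6-tagged human ROCK II (residues 11-552) phosphorylated a fluorescein-labelled peptide for 60 min at 32° C in Tris-HCl pH 7.4 with MgCl2, DTT and BSA, using 3 μM peptide and 120 μM ATP as diluted stocks. EDTA-stopped; phosphopeptide separated and detected by Caliper mobility shift; IC50 determined.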

recombinant human PKA = molecular target: T3, recombinant human PKA (Homo sapiens, UniProt P17612); test: Determination of Protein Kinase A inhibition (Caliper peptide phosphorylation assay); format: biochemical; settings: recombinant human PKA versus ROCK II
T3 construct: Active recombinant human PKA (residues 1-351, N-terminal His-tag); His-tag (N); purchased Invitrogen, Karlsruhe, Germany
How it was run: as §1

Protein Kinase G = settings: Rho kinase versus Protein Kinase G; cited from earlier work

Compound	Selectivity against PKG [1]	pIC50 [2]	Selectivity against PKA (recombinant human PKA)	selectivity against Protein Kinase G (Protein Kinase G)
CCC(N)C[C@]1(c2ccc(F)cc2)CC[C@H](Oc2cc3cc[nH]c(=O)c3cc2Cl)CC1 (stereo partly drawn) [Example 110, cis-6-[4-(2-Amino-butyl)-4-(4-fluoro-phenyl)-cyclohexyloxy]-7-chloro-2H-isoquinolin-1-one]	>100	++++++ (7.0≦pIC50<8.0)	>300	
NC(CF)[C@]1(c2ccc(F)cc2)CC[C@H](Oc2cc3cc[nH]c(=O)c3cc2Cl)CC1 (stereo partly drawn) [Example 114, cis-6-[4-(1-Amino-2-fluoro-ethyl)-4-(4-fluoro-phenyl)-cyclohexyloxy]-7-chloro-2H-isoquinolin-1-one]	>1000	+++++++ (8.0≦pIC50)	>1000	
CCC(N)C1(c2ccc(F)cc2)CC(Oc2cc3cc[nH]c(=O)c3cc2Cl)C1 (stereo not shown) [Example 125, 6-[3-(1-Amino-propyl)-3-(4-fluoro-phenyl)-cyclobutyloxy]-7-chloro-2H-isoquinolin-1-one]	>10	+++++ (6.0≦pIC50<7.0)	>10	
NC(c1ccccc1)C1CCC(Oc2cc3cc[nH]c(=O)c3cc2Cl)CC1 (stereo not shown) [Example 128, 6-[4-(amino-phenyl-methyl)-cyclohexyloxy]-7-chloro-2H-isoquinolin-1-one]	>10	+++++ (6.0≦pIC50<7.0)	>10	
C[C@@H](N)[C@H]1CC[C@H](C(=O)Nc2ccncc2)CC1 [Example Y-27632]				20 fold
cis-6-[4-(1- Amino-propyl)-4- (3-bromo- phenyl)-cyclo hexyloxy]-7- chloro-2H-iso quinolin-1-one [Example 29]	>1000	+++++++ (8.0≦pIC50)	>1000	
